From US20210221777A1, “NOVEL COMPOUNDS RELATED TO MY[…] METHODS OF TREATING CANCER” (priority 2020, published 2021)
Read-outs that look alike come from different tables or passages of the source.

How the values were obtained:
[1] = Shelf life / preservation studies (1H NMR)
From the text: Our final approach reinvestigating 1 involved exploring the relevance of the C(8)-OH stereocenter and labile C-14/C-19 diene system for their SAR significance related to the cytotoxicity of 1 against tumor cell lines.

[2] = test system: pancreatic (PANC-1) tumor cell lines; experiment: Cytotoxicity vs. PANC-1 tumor cell line
[3] = test system: hypoxia-induced factor (HIF-1) signaling in T47D breast tumor cells; settings: cited from earlier work; for IC50: hypoxia-induced, read-out: IC50 against HIF-1 signaling
[4] = test system: human colon tumor (HCT-15) cell lines; settings: Manta et al., read-out: GI50 against HCT-15; cited from earlier work
[5] = test system: pancreatic (PANC-1), liver (HepG2), and colon (HCT-116) tumor cell lines; experiment: Cytotoxicity of fresh 1, summary over PANC-1, HepG2 and HCT-116; format: cell-based
solid tumor cell lines = settings: read-out: cytotoxicity IC50 against a wide variety of solid tumor cell lines; range over literature cell lines; cited from earlier work
[6] = Sample storage degradation experiments a-e followed by LCMS; format: physicochemical; settings: 24 hrs
From the text: Recent work in our laboratory using HPLC during the scale up isolation of mycothiazole (1) hinted that mycothiazole-4,19-diol (7)^6 may also be an artifact of isolation encountered during routine purification of degraded 1. To test this hypothesis, we subjected freshly purified 1 to a variety of sample storage experimental conditions (a-e) summarized in Table 2. Analytical (LCMS) data was used to determine purity outcomes of 1 in terms of its observed degradation which is summarized at the bottom of Table 2 and in FIG. 2. […] Furthermore, the diagnostic MS m/z ion peak (439, [M+H]^+)^6 characteristic of 7 was also observed in samples b-c and e, but not in a or d, as shown in FIG. 2. Selected examples included molecular ion peaks of 421 m/z and 437 m/z. We were unable to pursue full or even partial structure elucidation of these components or the observed 439 m/z ion peak, using NMR studies, due to insufficient material.

[7] = test system: colon (HCT-116) tumor cell line; settings: literature value, may be inaccurate due to compound degradation, read-out: HCT 116 IC50 (Sashidhara et al., 2009); cited from earlier work
[8] = test system: colon (HCT-116) tumor cell line; experiment: Cytotoxicity vs. HCT 116 tumor cell line; format: cell-based; settings: this work, ± SEM, N = 2
[9] = read-out: PANC-1 IC50, PANC-1, this work, ± SEM, N = 2
[10] = a) standard protocol: amber vial, Argon, dark desiccator under vacuum
[11] = b) MeOH-O2 (air stream), amber vial, room temp. 22° C.
[12] = c) MeOH-N2 (N2 stream), amber vial, room temp. 22° C.
[13] = d) refrigeration 4° C., amber vial, Argon
[14] = e) direct light (hv), clear vial, 24° C.

In the case of “8-O-acetyl-mycothiazole [8-O-acetyl-mycothiazole (2)]”, the “time stable in preservation studies using 1H NMR” value ([1]; stored by standard storage protocol (Table 2a), more stable than 1) is given as no less than 6 months, the IC50 [2, 9] is given as 1.3 nM and the IC50 [3] is given as roughly 1 nM.
In the case of `C=CC/C=C\Cc1csc(C(C)(C)C(=O)C/C=C\C(=C)CCNC(=O)OC)n1` [8-Oxo-mycothiazole (8), 8-oxo-mycothiazole], the “fold less potent than 1 (cytotoxicity)” value ([2]; PANC-1, relative to 1) is reported as 10,000 times and the IC50 [2, 9] is reported as 2000 nM.
In the case of `C=CC/C=C\Cc1csc(C(C)(C)[C@H](O)C/C=C\C(=C)CCNC(=O)OC)n1` [mycothiazole (1), mycothiazole], the GI50 [4] is given as 44 µM, the “increase in potency of fresh 1 versus earlier data” value ([5]; PANC-1, HepG2, HCT-116) is given as “tenfold increase” and the IC50 ([5]; range over PANC-1, HepG2, HCT-116, read-out: IC50 of fresh 1 across three tumor cell lines) is given as 0.16 to 0.36 nM. The shelf life ([1]; pure 1, storage protocols a or d of Table 2) was 3-6 weeks, the stability on storage ([1]; stored at 4° C.) was “unstable” and the IC50 (solid tumor cell lines) was 0.36 to 13.8 nM. The “analytical LCMS data UV-PDA maximum absorbance units of 1” value [6, 10] was 500000 AU, the “purity outcomes of 1 involving its degradation” value (“purity outcomes” below) [6, 10] was “minimal degradation” and the “MS-TIC of visible impurity peaks” value [6, 11] was ~45% relative % relative abundance of m/z io. The “analytical LCMS data UV-PDA maximum absorbance units of 1” value [6, 11] was 500000 AU, the “purity outcomes” value [6, 11] was “partial degradation” and the “MS-TIC of visible impurity peaks” value [6, 12] was ~45% relative % relative abundance of m/z io. The “analytical LCMS data UV-PDA maximum absorbance units of 1” value [6, 12] was 500000 AU, the “purity outcomes” value [6, 12] was “partial degradation” and the “MS-TIC of visible impurity peaks” value [6, 13] was ~20% relative % relative abundance of m/z io. For the same compound, the “analytical LCMS data UV-PDA maximum absorbance units of 1” value [6, 13] was 500000 AU, the “purity outcomes” value [6, 13] was “minimal degradation” and the “MS-TIC of visible impurity peaks” value [6, 14] was ~60% relative % relative abundance of m/z io. For the same compound, the “analytical LCMS data UV-PDA maximum absorbance units of 1” value [6, 14] was 280000 AU, the “purity outcomes” value [6, 14] was “severe degradation” and the IC50 ([2]; Homo sapiens, PANC-1, read-out: PANC-1 IC50) was 0.16 nM. For the same compound, the IC50 [3] was roughly 1 nM and the IC50 [7] was 3.8 ± 0.24 nM.
In the case of `C=CC/C=C\Cc1csc(C(C)(C)[C@H](O)C/C=C/C(O)(CO)CCNC(=O)OC)n1` (stereo partly drawn) [mycothiazole-4,19-diol (7), mycothiazole-4,19-diol, reference compound], the “times less potent than 1 or 2 at suppression of hypoxia-induced HIF-1 activation” value [3] is given as “at least 1000 times” and the IC50 [8] is given as greater than 1000 nM.
